As a reminder, the Papp is the rate of passage across a membrane or cell layer, normalised by area and donor concentration. As a reminder, the logD is lipophilicity at a set pH, counting ionised and neutral species. A lower logD goes with lower lipophilicity. A word on the half-life: it is how long it takes for the measured level to halve. Read a low half-life as fast loss. As usually defined, the clearance is the rate of elimination divided by the concentration. Low readings indicate inefficient removal, high ones efficient removal. Broadly, the Vd is a proportionality between amount in the body and measured concentration, not a real space. High values mean extensive tissue distribution, low ones confinement near the circulation.

In series [1] the test system is MDR1 (human MDR1 or rat MDR1a). The series can be described thus: Apparent permeability of the compound in pig LLC-PK1 cells expressing human MDR1 or rat MDR1a. It counts as ADME, cell-based, Sus scrofa.
Series [2] is described as follows: Lipophilicity, logD of the compound. The following applies: octanol/water. The format is physicochemical.
Series [3] is described as follows: Half life in rat liver microsomes. The format is ADME. (Microsomes from liver hold many membrane-bound enzymes, among them those of drug oxidation.)
Series [4] in a line: Half life in human liver microsomes. The format is ADME.
Series [5] can be described thus: Clearance in rat plasma. It counts as ADME, cell-free.
Series [6] in a line: Volume of distribution in rat. The format is ADME. The following applies: in vivo.
Series [7] is described as follows: Half life in rat. The format is ADME. The following applies: in vivo.
Series [8] is described as follows: Clearance in dog plasma. It counts as ADME, cell-free, Canis lupus familiaris.
The nature of series [9]: Volume of distribution in dog. The following applies: in vivo. The format is ADME, Canis lupus familiaris.
Series [10] can be described thus: Half life in dog. It counts as ADME, Canis lupus familiaris. The following applies: in vivo.

For the compound `CC1(C)C(=O)N(C2CCCCC2)c2nc(Nc3ccccc3)ncc21`, the Papp in series [1] stood at 12 ×10⁻⁶ cm/s.
In the case of `CC1(C)C(=O)N([C@H]2CCc3c(O)cccc32)c2nc(Nc3ccccc3)ncc21`, the logD in [2] stood at 2.92. In addition, the half-life in [3] was 9 min; in series [4] it was 10 min; in series [7], 48 min; in series [10], 48 min. Also, the clearance in [5] is 341 mL/min/kg; in series [8], 68 mL/min/kg. In addition, the volume of distribution (Vd) in series [6] was 16.2 L/kg; in series [9], 4 L/kg.

These data come from ChEMBL document CHEMBL3875183, “Structure guided design of a series of selective pyrrolopyrimidinone MARK inhibitors” (Bioorg Med Chem Lett, 2017).
